Measured values taken from patent US6887867B2, “5H-2,3-benzodiazepine antagonists of excitatory amino acid receptors” (Transgenomic, Inc., priority 2000, dated 2005).
Where two headings read alike, the source gives them in different places.

Experiments:
focal ischemia = conditions: rat MCAO, cited from earlier work
global ischemia = conditions: rat common carotid arteries model; cited from earlier work
AMPA receptor = experiment: Inhibition of Ca2+ influx into cortical cells stimulated with AMPA; assay type: cell-based; conditions: cortical cells stimulated with 50 μM AMPA; fluorescence readout
Method: Three of the antagonists disclosed herein were tested, in vitro, for inhibition of Ca^2+ influx into cortical cells stimulated with AMPA. They are 1-(4-Aminophenyl)-3,5-dihydro-4-methyl-3-acetyl-7-methoxy-5H-2,3-benzodiazepine (8) (SYM 2267), 1-(4-Aminophenyl)-3,5-dihydro-4-methyl-3-acetyl-8-methoxy-5H-2,3-benzodiazepine (21) (SYM 2268), and 1-(4-Aminophenyl)-3,5-dihydro-4-methyl-3-acetyl-7-amino-8-methoxy-5H-2,3-benzodiazepine (27) (SYM 2269), respectively. The in vitro test measures inhibition of Ca^2+ influx into cortical cells stimulated with 50 µM AMPA by the test compounds. The rationale underlying this assay is that stimulation of the cortical cells with AMPA activates AMPA receptors causing Ca^2+ influx with an increase in intracellular Ca^2+ which is then detected by measuring an increase in fluorescence. The Ca^2+ increase comes mostly from extracellular (influx of Ca^2+ through the channel into the cell), but could also come from intracellular sources (release of Ca^2+ from storage). The inhibition of the AMPA receptor function is detected by a decrease in the level of intracellular Ca^2+ and a decrease in fluorescence.

Rotorod test = assay type: in vivo; conditions: rats, PO
MES seizures = experiment: Maximal electro shock (MES) seizure model; assay type: in vivo; conditions: rats
Method: The extent of protection by a test compound in a seizure model is tested as described by Rogawski et al. (Epilepsy Research, 15:179-184, 1993). Male NIH Swiss mice (25-30 g) are injected ip with the test drug. The mice are subjected to a 0.2 sec, 60 Hz, 50 mA electrical stimulus delivered with corneal electrodes wetted with 0.9% saline at 15-30 min post dosing. Animals failing to show tonic hind limb extension are scored as protected. Compounds may be selected which are active in this model.
SYM 2267 was evaluated for in vivo anticonvulsant activity in the maximal electro shock (MES) model in rats.

SMILES: CC1=NN=C(c2ccc(N)cc2)c2cc3c(cc2C1)OCO3 [GYKI 52466]
- Reduction of cortical infarct volume (focal ischemia; dosing delayed for one hour): 48%
- Reduction of cortical infarct volume (focal ischemia; given continuously for 2 hours just after occlusion): 68%
- Efficacy in global ischemia compared with NBQX (global ischemia): as effective as the glutamate site competitive antagonist NBQX

SMILES: COc1ccc2c(c1)C(c1ccc(N)cc1)=NN(C(C)=O)C(C)C2 (stereo not drawn) [SYM 2268, 1-(4-Aminophenyl)-3,5-dihydro-4-methyl-3-acetyl-8-methoxy-5H-2,3-benzodiazepine]
- IC50 (AMPA receptor): 16.6 µM

SMILES: COc1cc2c(cc1N)CC(C)N(C(C)=O)N=C2c1ccc(N)cc1 (stereo not drawn) [SYM 2269, 1-(4-Aminophenyl)-3,5-dihydro-4-methyl-3-acetyl-7-amino-8-methoxy-5H-2,3-benzodiazepine]
- IC50 (AMPA receptor): 7.3 µM

SMILES: COc1ccc2c(c1)CC(C)N(C(C)=O)N=C2c1ccc(N)cc1 (stereo not drawn) [SYM 2267, 1-(4-Aminophenyl)-3,5-dihydro-4-methyl-3-acetyl-7-methoxy-5H-2,3-benzodiazepine]
- Sedative or toxic side effects in the rotorod test (Rotorod test): No sedative or toxic side effects were observed
- ED50 (MES seizures; Rattus norvegicus, MES model, read-out: MES effective dosage (ED50)): 8.4 mg/kg
- Protection from MES seizures (MES seizures; orally (PO), 30 mg/kg): fully protected
- IC50 (AMPA receptor): 26.1 µM
